The values below come from US7919488B2, “Therapeutic compounds” (Pfizer Inc., priority 2006, dated 2011).

Holding throughout (type): biochemical
The target in assay [1] is T1, CYP3A4 (Homo sapiens, UniProt P08684).
T1 construct: 0.1 mg/mL human liver microsomes; from tissue; host or cells: human liver microsomes
In words: IC50 against CYP3A4 by inhibition of midazolam metabolism in human liver microsomes. The conditions noted are these: 0.1 mg/mL human liver microsomes, 2 μM midazolam, 1 mM NADPH, 1-hydroxymidazolam production, eight minutes; read-out: IC50, μM (HLM, midazolam). The method, then: 3. Determination of IC50 Against CYP3A4 by Measurement of Inhibition of Midazolam Metabolism
This assay was performed using a standard 96 well plate design. […] The incubation substrate mix contains 2 μM midazolam, 0.1 mg/mL human liver microsomes, 1 mM NADPH, and potassium phosphate buffer (100 mM, pH 7.4). Quantitation of metabolite peak area ratio against internal standard is determined by LC-MS/MS analysis. The production of 1-hydroxymidazolam from midazolam metabolism is determined after incubation for eight minutes by comparison to a standard curve generated for the metabolite.
(§1) Samples were analyzed in the MRM mode using a Sciex API 3000 mass spectrometer (Applied Biosystems, Foster City, Calif.) with a Paradigm MS4 binary pump (Michrom BioResources Inc., Auburn, Calif.) and a LEAP CTC PAL autosampler (LEAP Technologies, Carrboro, N.C.). A Phenomenex Synergi, 4μ, Polar-RP, 10×2.0 mm column (Phenomenex, Torrance, Calif.) was used for separation with a mobile phase composition of: 0.1% formic acid in water (A) and: 0.1% formic acid in methanol (B). The following gradient was used: […]
(§2) The sample injection volume was 10 μL and flow was split post-column with 0.4 mL/min going to the mass spectrometer. Analysis was performed using the following API 3000 mass spectrometer settings: […]
(Microsomes from liver hold many membrane-bound enzymes, among them those of drug oxidation.)

The target in assay [2] is T1, CYP3A4. In words: IC50 against CYP3A4 by inhibition of testosterone metabolism in human liver microsomes. The following applies: 0.1 mg/mL human liver microsomes, 25 μM testosterone, 1 mM NADPH, 6-β-OH-testosterone production, eight minutes; read-out: IC50, μM (HLM, testosterone). The method, then:
2. Determination of IC50 Against CYP3A4 by Measurement of Inhibition of Testosterone Metabolism
This assay was performed using a standard 96 well plate design. […] Quantitation of metabolite peak area ratio against an internal standard is determined by LC-MS/MS analysis. The production of 6-β-OH-testosterone from testosterone metabolism is determined after incubation for eight minutes by comparison to a standard curve generated for the metabolite
as §1, §2

For assay [3], the target named is T2, recombinant CYP3A4-b5 enzyme (Baculosomes®) (Homo sapiens, UniProt P08684).
T2 construct: purchased Invitrogen (Carlsbad, Calif.)
T2 sequence (P08684 whole entry): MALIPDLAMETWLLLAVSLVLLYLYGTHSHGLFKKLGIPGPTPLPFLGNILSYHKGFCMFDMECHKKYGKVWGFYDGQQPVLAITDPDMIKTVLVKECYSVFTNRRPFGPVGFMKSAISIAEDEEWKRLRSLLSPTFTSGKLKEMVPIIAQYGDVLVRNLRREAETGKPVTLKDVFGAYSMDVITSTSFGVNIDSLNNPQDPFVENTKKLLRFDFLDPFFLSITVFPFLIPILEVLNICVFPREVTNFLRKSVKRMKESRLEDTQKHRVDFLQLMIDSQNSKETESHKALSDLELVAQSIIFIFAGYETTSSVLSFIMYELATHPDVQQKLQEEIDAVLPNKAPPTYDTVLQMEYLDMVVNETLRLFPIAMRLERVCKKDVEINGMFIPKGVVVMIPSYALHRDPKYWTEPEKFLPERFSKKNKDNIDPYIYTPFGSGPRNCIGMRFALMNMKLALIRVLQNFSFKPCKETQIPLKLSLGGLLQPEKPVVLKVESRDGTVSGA
The assay can be described thus: Kiapp against recombinant CYP3A4 enzyme (Baculosomes), BFC substrate. The conditions noted are these: recombinant CYP3A4-b5 (Invitrogen), 5 uM BFC, 200 uM NADPH, pre-incubation at least 30 minutes, pH 7.0, room temperature. On the procedure: 1. Determination of Compound Kiapp
A determination of the Kiapp of the compounds of the invention against recombinant CYP3A4 enzyme was performed as follows. The assay was performed in a 100 mM sodium phosphate buffer pH 7.0, 5 mM TCEP and containing 2% dimethylformamide (final concentration) upon addition of substrate and inhibitor. A typical reaction for the determination of Kiapp values was carried at room temperature in a solid black Costar u-bottom 96-well polypropylene plate. […] When pre-incubation was completed (˜30 min), the reaction was initiated by adding NADPH (200 uM, final concentration), and 7-benzyloxy-4-(trifluoromethyl)-coumarin (BFC) (5 uM, final concentration). The oxidation of the coumarin substrate was recorded by a 96-well plate reader POLARstar (BMG LABTECH, Offenburg, Germany).
The initial reaction velocities were measured during the first 5 min of the reaction when the release of the fluorescent product is linear with time, in the absence and in the presence of various concentrations of inhibitors.
The fluorescent substrate BFC was purchased from Sigma (St Louis, Mo.). Two commercial sources of recombinant enzymes were used in this study: recombinant CYP3A4-b5 enzyme (Baculosomes®) was purchased from Invitrogen (Carlsbad, Calif.) and the recombinant CYP3A4+b5 enzyme (Supersomes®) was purchased from BD Biosciences (Woburn, Mass.).

T1 sequence (P08684 whole entry): as above

Consider `Cc1noc(CCNC(=O)Cn2nc(-c3ccncc3)cc2Cc2ccc(F)cc2)n1` [Example 91, 2-[5-(4-fluorobenzyl)-3-pyridin-4-yl-1H-pyrazol-1-yl]-N-[2-(3-methyl-1,2,4-oxadiazol-5-yl)ethyl]acetamide], for which the IC50 – broadly, the midpoint of a concentration-inhibition curve – was found to be 0.019 µM in assay [1] and 0.018 µM in assay [2]. The Ki in assay [3] stood at 0.112 µM.
For the compound `COC(=O)Cn1nc(-c2ccncc2)cc1Cc1ccc(F)cc1` [Example 2, methyl [5-(4-fluorobenzyl)-3-pyridin-4-yl-1H-pyrazol-1-yl]acetate], the IC50 in assay [2] is 0.956 µM. The Ki in assay [3] was 0.13 µM.
As for `CN(C(=O)Cn1nc(-c2ccncc2)cc1Cc1ccc(F)cc1)[C@H]1CC[C@H](O)CC1` [Example 83, 2-[5-(4-fluorobenzyl)-3-pyridin-4-yl-1H-pyrazol-1-yl]-N-(trans-4-hydroxycyclohexyl)-N-methylacetamide], the IC50 in assay [1] amounted to 0.015 µM; in assay [2], 0.0235 µM. Moreover, in assay [3], the Ki turned out to be 0.0458 µM.
The like results for `CC(C)NC(=O)Cn1nc(-c2c[nH]cn2)cc1Cc1ccc(F)cc1` [Example 111, 2-[5-(4-fluorobenzyl)-3-(1H-imidazol-4-yl)-1H-pyrazol-1-yl]-N-isopropylacetamide] were, in that order, 0.223 µM, 0.714 µM and 0.838 µM.
With `CC(C)C(=O)NC1CCN(C(=O)Cn2nc(-c3ccncc3)cc2Cc2ccc(F)cc2)CC1` [Example 104, N-(1-{[5-(4-fluorobenzyl)-3-pyridin-4-yl-1H-pyrazol-1-yl]acetyl}piperidin-4-yl)-2-methylpropanamide], in assay [2], the IC50 is 0.046 µM. For the same compound, the Ki in assay [3] was found to be 0.106 µM.
As to `CS(=O)(=O)N1CC(n2nc(-c3ccncc3)cc2Cc2ccc(F)cc2)C1` [Example 23, 4-{5-(4-fluorobenzyl)-1-[1-(methylsulfonyl)azetidin-3-yl]-1H-pyrazol-3-yl}pyridine], the IC50 came out at 0.375 µM in assay [1] and 0.218 µM in assay [2]. In addition, the Ki in assay [3] is 0.159 µM.
Take `CNC(=O)N(C)C1CCN(C(=O)Cn2nc(-c3ccncc3)cc2Cc2ccc(F)cc2)CC1` [Example 117, 1-(1-{[5-(4-fluorobenzyl)-3-pyridin-4-yl-1H-pyrazol-1-yl]acetyl}piperidin-4-yl)-1,3-dimethylurea]: the IC50 was 0.011 µM in assay [1] and 0.018 µM in assay [2]. Further, in assay [3], the Ki worked out at 0.0702 µM.
As to `CCC(=O)NC1CCN(C(=O)Cn2nc(-c3ccncc3)cc2Cc2ccc(F)cc2)CC1` [Example 101, N-(1-(2-[5-(4-fluorobenzyl)-3-pyridin-4-yl-1H-pyrazol-1-yl]acetyl}piperidin-4-yl)propanamide], the IC50 in assay [1] turned out to be 0.0105 µM; in assay [2] it was 0.035 µM. The Ki in assay [3] amounted to 0.158 µM.
The like results for `Fc1ccc(Cc2cc(-c3ccncc3)nn2Cc2nc(N3CCOCC3)no2)cc1` [Example 70, 4-(5-{[5-(4-fluorobenzyl)-3-pyridin-4-yl-1H-pyrazol-1-yl]methyl}-1,2,4-oxadiazol-3-yl)morpholine] were, in that order, 0.019 µM, below 0.012 µM and 0.0238 µM.
As to `O=C(Cn1nc(-c2c[nH]cn2)cc1Cc1ccc(F)cc1)N1CCN(c2ncccn2)CC1` [Example 108, 2-(4-{[5-(4-fluorobenzyl)-3-(1H-imidazol-4-yl)-1H-pyrazol-1-yl]acetyl}piperazin-1-yl)pyrimidine], the IC50 in assay [2] came out at 0.241 µM. For the same compound, the Ki in assay [3] is 0.0881 µM.
Turning to `O=C(c1ncccn1)N1CC(n2nc(-c3ccncc3)cc2Cc2ccc(F)cc2)C1` [Example 68, 2-({3-[5-(4-fluorobenzyl)-3-pyridin-4-yl-1H-pyrazol-1-yl]azetidin-1-yl}carbonyl)pyrimidine], the IC50 is 0.091 µM in assay [1] and 0.081 µM in assay [2]. For the same compound, the Ki in assay [3] was 0.137 µM.
The like results for `Fc1ccc(Cc2cc(-c3ccncc3)nn2C2CN(C(c3ccccc3)c3ccccc3)C2)cc1` [Example 20, 4-[1-[1-(diphenylmethyl)azetidin-3-yl]-5-(4-fluorobenzyl)-1H-pyrazol-3-yl]pyridine] were, in that order, 0.228 µM, 0.251 µM and 0.0365 µM.
As to `O=C(Cn1nc(-c2ccncn2)cc1Cc1ccc(F)cc1)N1CCN(c2ccccn2)CC1` [Example 97, 4-{5-(4-fluorobenzyl)-1-[2-oxo-2-(4-pyridin-2-ylpiperazin-1-yl)ethyl]-1H-pyrazol-3-yl}pyrimidine], the IC50 in assay [1] was 0.045 µM; in assay [2], below 0.012 µM. The Ki in assay [3] came out at 0.232 µM.
`O=C(NC1CCN(C(=O)Cn2nc(-c3ccncc3)cc2Cc2ccc(F)cc2)CC1)C1CCC1` [Example 18, N-(1-{2-[5-(4-fluorobenzyl)-3-pyridin-4-yl-1H-pyrazol-1-yl]acetyl}piperidin-4-yl)cyclobutanecarboxamide]: the IC50 in assay [2] was found to be 0.018 µM. Also, the Ki in assay [3] was found to be 0.0706 µM.
In the case of `CC(C)NC1CCN(C(=O)Cn2nc(-c3ccncc3)cc2Cc2ccc(F)cc2)CC1` [Example 9, 1-{[5-(4-fluorobenzyl)-3-pyridin-4-yl-1H-pyrazol-1-yl]acetyl}-N-isopropylpiperidin-4-amine], the IC50 in assay [2] amounted to 0.056 µM. The Ki in assay [3] worked out at 0.202 µM.
The like results for `CCNC(=O)NC1CCN(C(=O)Cn2nc(-c3ccncc3)cc2Cc2ccc(F)cc2)CC1` [Example 106, 1-ethyl-3-(1-{[5-(4-fluorobenzyl)-3-pyridin-4-yl-1H-pyrazol-1-yl]acetyl}piperidin-4-yl)urea] were, in that order, 0.023 µM and 0.0782 µM.
The like results for `CNC(=O)NC1CCN(C(=O)Cn2nc(-c3ccncc3)cc2Cc2ccc(F)cc2)CC1` [Example 107, 1-(1-{[5-(4-fluorobenzyl)-3-pyridin-4-yl-1H-pyrazol-1-yl]acetyl}piperidin-4-yl)-3-methylurea] were, in that order, 0.029 µM and 0.165 µM.
The like results for `C[C@H](CO)NC(=O)Cn1nc(-c2ccncc2)cc1Cc1ccc(F)cc1` [Example 94, 2-[5-(4-fluorobenzyl)-3-pyridin-4-yl-1H-pyrazol-1-yl]-N-[(1R)-2-hydroxy-1-methylethyl]acetamide] were, in that order, 0.022 µM and 0.112 µM.
Turning to `OCCn1nc(-c2ccncc2)cc1Cc1ccc(F)cc1` [Example 29, 2-[5-(4-fluorobenzyl)-3-pyridin-4-yl-1H-pyrazol-1-yl]ethanol], in assay [2], the IC50 turned out to be 0.054 µM. The Ki in assay [3] stood at 0.159 µM.
The like results for `CCS(=O)(=O)N(C)C1CCN(C(=O)Cn2nc(-c3ccncc3)cc2Cc2ccc(F)cc2)CC1` [Example 110, N-(1-{[5-(4-fluorobenzyl)-3-pyridin-4-yl-1H-pyrazol-1-yl]acetyl}piperidin-4-yl)-N-methylethane-sulfonamide] were, in that order, 0.016 µM and 0.0158 µM.
The like results for `COC(=O)NC1CCN(C(=O)Cn2nc(-c3ccncc3)cc2Cc2ccc(F)cc2)CC1` [Example 105, methyl (1-{[5-(4-fluorobenzyl)-3-pyridin-4-yl-1H-pyrazol-1-yl]acetyl}piperidin-4-yl)carbamate] were, in that order, 0.036 µM and 0.055 µM.
The like results for `O=C(Cn1nc(-c2ccncc2)cc1Cc1ccc(F)cc1)NCCc1cnccn1` [Example 78, 2-[5-(4-fluorobenzyl)-3-pyridin-4-yl-1H-pyrazol-1-yl]-N-(2-pyrazin-2-ylethyl)acetamide] were, in that order, 0.04 µM and 0.0834 µM.
In the case of `CC(=O)N(C)C1CCN(C(=O)Cn2nc(-c3ccncc3)cc2Cc2ccc(F)cc2)CC1` [Example 109, N-(1-{[5-(4-fluorobenzyl)-3-pyridin-4-yl-1H-pyrazol-1-yl]acetyl}piperidin-4-yl)-N-methylacetamide], in assay [2], the 50% inhibitory concentration (IC50) stood at 0.036 µM. Also, in assay [3], the Ki stood at 0.0643 µM.
